Earlier results in patent publication US20070134244A1, “Combination treatment for pathologic ocular angiogenesis” (Alcon, Inc., priority 2005, published 2007).

Test system: xenotransplant models of colon cancer
Details: xenotransplant models of colon cancer in nude (athymic) mice; Presta et al. 1997

## bevacizumab
  metastatic disease progression: inhibition of metastatic disease progression
  microvascular growth: reduction of microvascular growth
